Tests used:
kinase Axl = molecular target: T1, kinase Axl (Homo sapiens, UniProt P30530); assay: Mobility shift assay, inhibitory activity against kinase Axl; type: biochemical; details: ATP at Km (81 μM), average of two independent experiments
T1 construct: purchased Carna 08-107
T1 sequence (P30530 473-894 limits assumed): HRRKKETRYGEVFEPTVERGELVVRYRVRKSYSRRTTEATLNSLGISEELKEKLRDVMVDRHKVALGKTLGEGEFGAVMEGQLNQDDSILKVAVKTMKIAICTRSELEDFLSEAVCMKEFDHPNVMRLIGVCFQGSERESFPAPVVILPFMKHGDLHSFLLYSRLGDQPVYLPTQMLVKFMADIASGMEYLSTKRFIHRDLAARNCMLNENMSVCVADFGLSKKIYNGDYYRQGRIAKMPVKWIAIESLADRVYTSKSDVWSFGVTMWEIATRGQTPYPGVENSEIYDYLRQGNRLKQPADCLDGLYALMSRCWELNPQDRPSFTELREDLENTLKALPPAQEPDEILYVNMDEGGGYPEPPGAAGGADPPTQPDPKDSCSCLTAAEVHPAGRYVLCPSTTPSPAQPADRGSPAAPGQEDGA
Procedure: (§1) In this test, mobility shift assay was used to test the inhibitory activity of compounds when ATP concentrations correspond to the Km of the kinases.
(§2) The concentration of test compound was 10-fold diluted from an initial concentration of 10 μM. The test result (IC50) was the average of two independent experiments.
(§3) For example, a compound at an initial concentration of 10 μM was adjusted to 500 μM with 100% DMSO, then serially diluted for 10 concentrations, and then subjected to 10-fold dilution with the buffer to prepare a diluted compound intermediate containing 10% DMSO, 5 μL of which was transferred to the 384-well plate.
(§4) 10 μL of the two enzyme solutions each was added to the 384-well plate and co-incubated with the compound for 10-15 min at room temperature.
(§5) 10 μL of the diluted substrate was added to the 384-well plate to initiate the reaction, which lasts for 1 h at 28° C.
(§6) 5) The conversion rate was read by Caliper Reader (Perkin Elmer) and the inhibition rate was calculated as the average of two tests.
(§7) 6) IC50 values were fitted with XL-fit software.

kinase c-MET = molecular target: T2, kinase c-MET (Homo sapiens, UniProt P08581); assay: Mobility shift assay, inhibitory activity against kinase c-MET; type: biochemical; details: ATP at Km (35 μM), average of two independent experiments
T2 construct: purchased Carna 08-151
Procedure: as §1, §2, §3, §4, §5, §6, §7

EBC-1 cells = assay: EBC-1 cell proliferation, CellTiter-Glo Luminescent Cell Viability Assay; type: cell-based; details: Homo sapiens, 72 h incubation, read-out: IC50 (nM) against EBC-1 cells
Procedure: Test Example 3: Inhibitory Activity of Compounds disclosed herein against EBC-1 Cells
Test method: the inhibitory activity of the compounds against EBC-1 cell proliferation was evaluated using CellTiter-Glo® Luminescent Cell Viability Assay Kit (Promega).
Test procedures: when thawing EBC-1 cells, the cell cryopreservation tube was shaken rapidly in a water bath at 37° C. to thaw the cells in 1 min. The cell suspension after thawing was mixed with RPMI1640 culture medium containing 10% FBS and centrifuged for 5 min at 1000 rpm, and the supernatant was discarded. The cell pellet was suspended in 5 mL of complete culture medium. The suspension was placed in a cell culture flask with a bottom area of 25 cm^2, and cultured in a cell incubator at 37° C./95% humidity/5% CO2. Cell passage was performed when cell confluence reached about 80%. When the cells were passaged, the original cell suspension was directly made uniform by pipetting. 1/6 of the cell suspension was kept, added with 5 mL of new complete culture medium and then made uniform by pipetting. The cell culture flask was then placed in a cell incubator for further culturing. Cell plating was performed when the cell confluence reached about 80% again. With reference to the method for cell passage, 1/6 cell suspension was kept for further culturing when the cells were plated, and the remaining 5/6 of cell suspension was placed in a 15 mL centrifuge tube. Cell viability was detected by trypan blue exclusion using an IC1000 cell counter (Countstar) to ensure that cell viability was above 90%. Cell suspension at a density of 3.33×10^4 viable cells/mL was prepared using complete culture medium, and 90 μL of the cell suspension was added into 96-well cell culture plates, so that the cell density in the cell culture plates (day 0 plate and test compound plate) was 3000 viable cells/well. A control group that contains no cell or compound but only complete culture medium and a control group that contains no compound but cells were set. The cell plates were incubated overnight in a cell incubator. […] 10 μL of the above solution was added into a corresponding cell culture plate to ensure that the initial concentration of the compound was 10 μM, the dilution factor of adjacent concentration was 3.16, and the DMSO content in the cell culture plate was 0.1%. The cell plates were then incubated in the cell incubator for 72 h. During detection, CellTiter-Glo reagent (namely CellTiter-Glo® […] cell viability test reagent, Promega, Cat. No. G7572, Lot. No. 0000310975) was melted, and the cell plate was equilibrated at room temperature for 30 min. The cell plate was added with the CellTiter-Glo reagent at 100 μL per well, and then shaken on a QB-9001 microporous quick shaker (Kylin-Bell) for 5 min to fully lyse the cells. The cell plate was left to stand at room temperature for 20 min to stabilize luminescence signals, and the luminescence value of each well was scanned by a Spectramax M3 multi-functional microplate reader (Molecular Devices) at full wavelength.
Test samples: example compounds of the present invention and cabozantinib (positive control compound).
Data analysis: cell viability was calculated for compounds at various concentrations using the following formula:
Cell viability(%)=(Lumtest compound−Lumculture solution control)/(Lumcell control−Lumculture solution control)×100%,
where Lum refers to the luminescence value of each well of the test compound plate read by the multi-functional microplate reader.
The data were analyzed using GraphPad Prism 7.0 software, fitted with nonlinear S-curve regression to give dose-response curves, and IC50 values were calculated therefrom.

T2 sequence (P08581 956-1390 limits assumed): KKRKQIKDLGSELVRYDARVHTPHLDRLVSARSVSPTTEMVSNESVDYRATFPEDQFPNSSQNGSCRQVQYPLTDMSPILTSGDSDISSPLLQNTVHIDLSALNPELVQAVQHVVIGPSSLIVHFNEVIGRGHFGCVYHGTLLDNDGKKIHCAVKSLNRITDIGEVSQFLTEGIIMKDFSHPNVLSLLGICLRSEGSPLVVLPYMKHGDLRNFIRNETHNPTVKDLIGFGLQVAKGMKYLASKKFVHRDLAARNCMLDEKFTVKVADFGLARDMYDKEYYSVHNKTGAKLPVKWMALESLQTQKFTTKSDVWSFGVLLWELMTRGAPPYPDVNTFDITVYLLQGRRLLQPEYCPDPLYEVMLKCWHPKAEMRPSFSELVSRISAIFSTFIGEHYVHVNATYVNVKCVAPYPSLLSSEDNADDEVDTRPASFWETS

| IC50 (kinase Axl) [nM] | IC50 (kinase c-MET) [nM] | SMILES | IC50 (EBC-1 cells) [nM] |
| --- | --- | --- | --- |
| 2.1 | 23 | N#Cc1c(C2CC2)cc(C(=O)Nc2ccc(-c3cc(-c4cnn(C5CCNCC5)c4)cnc3N)c(F)c2)c(=O)n1-c1ccc(F)cc1 [Example 12, N-(4-(2-amino-5-(1-(piperidin-4-yl)-1H-pyrazol-4-yl)pyridin-3-yl)-3-fluorophenyl)-6-cyano-5-cyclopropyl-1-(4-fluorophenyl)-2-oxo-1,2-dihydropyridine-3-carboxamide] | 98 |
| 5.9 |  | COc1cc2nccc(Oc3ccc(NC(=O)c4cn(C5CC5)c(C#N)c(-c5ccc(F)cc5)c4=O)cc3F)c2cc1OC [Example 22, 6-cyano-N-(4-((6,7-dimethoxyquinolin-4-yl)oxy)-3-fluoro-phenyl)-5-(4-fluorophenyl)-1-cyclopropyl-4-oxo-1,4-dihydropyridine-3-carboxamide] | 84 |
|  |  | COc1cc2nccc(Oc3ccc(NC(=O)c4cn(C5CCC5)c(C#N)c(-c5ccc(F)cc5)c4=O)cc3F)c2cc1OC [Example 23, 6-cyano-N-(4-((6,7-dimethoxyquinolin-4-yl)oxy)-3-fluoro-phenyl)-5-(4-fluorophenyl)-1-cyclobutyl-4-oxo-1,4-dihydropyridine-3-carboxamide] | 74 |
| 6.6 | 20 | Cn1cc(-c2cnc(N)c(-c3ccc(NC(=O)c4cc(C5CC5)c(C#N)n(-c5ccc(F)cc5)c4=O)cc3F)c2)cn1 [Example 15, N-(4-(2-amino-5-(1-methyl-1H-pyrazol-4-yl)pyridin-3-yl)-3-fluorophenyl)-6-cyano-5-cyclopropyl-1-(4-fluorophenyl)-2-oxo-1,2-dihydropyridine-3-carboxamide] | 190 |
|  |  | COc1cc2nccc(Oc3ccc(NC(=O)c4cn(C(C)C)c(C#N)c(-c5ccc(F)cc5)c4=O)cc3F)c2cc1C#N [Example 25, 6-cyano-N-(4-((6-cyano-7-methoxyquinolin-4-yl)oxy)-3-fluoro-phenyl)-5-(4-fluorophenyl)-1-isopropyl-4-oxo-1,4-dihydropyridine-3-carboxamide] | 115 |
|  |  | COc1cc2nccc(Oc3ccc(NC(=O)C4(C(=O)Nc5ccc(F)cc5)CC4)cc3)c2cc1OC [Cabozantinib, cabozantinib, reference compound] | 37 |
| 3.1 |  | COc1cc2nccc(Oc3ccc(NC(=O)c4cc(C)c(C#N)n(-c5ccc(F)cc5)c4=O)cc3F)c2cc1OC [Example 29A, 6-cyano-N-(4-((6,7-dimethoxyquinolin-4-yl)oxy)-3-fluoro-phenyl)-1-(4-fluorophenyl)-5-methyl-2-oxo-1,2-dihydropyridine-3-carboxamide] | 82.7 |
| 12 | 12 | CCn1cc(-c2cnc(N)c(-c3ccc(NC(=O)c4cc(C)c(C#N)n(-c5ccc(F)cc5)c4=O)cc3F)c2)cn1 [Example 18, N-(4-(2-amino-5-(1-ethyl-1H-pyrazol-4-yl)pyridin-3-yl)-3-fluorophenyl)-6-cyano-1-(4-fluorophenyl)-5-methyl-2-oxo-1,2-dihydropyridine-3-carboxamide] | 298 |
| 5.5 | 14 | CC(C)n1cc(C(=O)Nc2ccc(-c3cc(-c4cnn(C5CCNCC5)c4)cnc3N)c(F)c2)c(=O)n(-c2ccc(F)cc2)c1=O [Example 20, N-(4-(2-amino-5-(1-(piperidin-4-yl)-1H-pyrazol-4-yl)pyridin-3-yl)-3-fluorophenyl)-3-(4-fluorophenyl)-1-isopropyl-2,4-dioxo-1,2,3,4-tetrahydropyrimidine-5-carboxamide] | 106 |
| 0.95 | 10 | N#Cc1c(-c2ccc(F)cc2)c(=O)c(C(=O)Nc2ccc(-c3cc(-c4cnn(C5CCNCC5)c4)cnc3N)c(F)c2)cn1C1CC1 [Example 11, N-(4-(2-amino-5-(1-(piperidin-4-yl)-1H-pyrazol-4-yl)pyridin-3-yl)-3-fluorophenyl)-6-cyano-5-(4-fluorophenyl)-1-cyclopropyl-4-oxo-1,4-dihydropyridine-3-carboxamide] | 91 |
| 19 | 19 | COc1cc2nccc(Oc3ccc(NC(=O)c4cc(C)c(CN)n(-c5ccc(F)cc5)c4=O)cc3F)c2cc1OC [Example 26, 6-(aminomethyl)-N-(4-((6,7-dimethoxyquinolin-4-yl)oxy)-3-fluorophenyl)-1-(4-fluorophenyl)-5-methyl-2-oxo-1,2-dihydro-1,2-dihydropyridine-3-carboxamide] | 132 |

— patent publication US20210355107A1, “MULTI-SUBSTITUTED PYRIDONE DERIVATIVES AND MEDICAL USE THEREOF” (Beijing Yuezhikangtai Biomedicines Co., Ltd., priority 2018, published 2021)
